Source: paper PMC5218480 (PLoS ONE, 2017)

System: MV-4-11 cells
Assay: Gene expression microarray analysis (Affymetrix PrimeView) and GSEA
Assay type: cell-based, human
Parameters: RFU PODN (11730768_x_at) / Fold change /veh PODN (11730768_x_at) / RFU LINC00158 (11744669_a_at) / Fold change /veh LINC00158 (11744669_a_at) / RFU DUSP10 (11751237_a_at) / Fold change /veh DUSP10 (11751237_a_at) / RFU ID3 (11757404_x_at) / Fold change /veh ID3 (11757404_x_at) / RFU PLEKHG5 (11737974_s_at) / Fold change /veh PLEKHG5 (11737974_s_at) / RFU LRRC4B (11730491_at) / Fold change /veh LRRC4B (11730491_at) / RFU GIMAP4 (11747438_a_at) / Fold change /veh GIMAP4 (11747438_a_at) / RFU KRT8 (11758183_x_at) / Fold change /veh KRT8 (11758183_x_at) / RFU CNN1 (11734310_a_at) / Fold change /veh CNN1 (11734310_a_at) / RFU VPS37D (11726825_at) / Fold change /veh VPS37D (11726825_at) / RFU C10orf10 (11716522_x_at) / Fold change /veh C10orf10 (11716522_x_at) / RFU KIR2DL2 /// KIR2DL4 /// KIR2DL5A /// KIR2DL5B /// KIR2DS1 /// KIR2DS2 /// KIR2DS3 /// KIR2DS4 /// KIR3DL3 /// KIR3DL3 /// KIR3DS1 (11738374_at) / Fold change /veh KIR2DL2 /// KIR2DL4 /// KIR2DL5A /// KIR2DL5B /// KIR2DS1 /// KIR2DS2 /// KIR2DS3 /// KIR2DS4 /// KIR3DL3 /// KIR3DL3 /// KIR3DS1 (11738374_at) / RFU C1QL1 (11718748_at) / Fold change /veh C1QL1 (11718748_at) / RFU TMPRSS4 (11747572_a_at) / Fold change /veh TMPRSS4 (11747572_a_at) / RFU HAMP (11756126_x_at) / Fold change /veh HAMP (11756126_x_at) / RFU RNFT2 (11725882_a_at) / Fold change /veh RNFT2 (11725882_a_at) / RFU NR4A2 (11747474_a_at) / Fold change /veh NR4A2 (11747474_a_at) / RFU ABCC12 (11746883_a_at) / Fold change /veh ABCC12 (11746883_a_at) / RFU TMEM136 (11760407_x_at) / Fold change /veh TMEM136 (11760407_x_at) / RFU CLDN22 /// WWC2 (11732394_at) / Fold change /veh CLDN22 /// WWC2 (11732394_at) / RFU HLA-DPB1 (11760878_x_at) / Fold change /veh HLA-DPB1 (11760878_x_at) / RFU SPINT1 (11716480_a_at) / Fold change /veh SPINT1 (11716480_a_at) / RFU GAP43 (11754022_s_at) / Fold change /veh GAP43 (11754022_s_at) / RFU A4GNT (11735810_at) / Fold change /veh A4GNT (11735810_at) / RFU PRB3 (11715151_x_at) / Fold change /veh PRB3 (11715151_x_at) / RFU TUBB4B (11761932_at) / Fold change /veh TUBB4B (11761932_at) / RFU CAPN14 (11732068_a_at) / Fold change /veh CAPN14 (11732068_a_at) / RFU TMCC2 (11721928_a_at) / Fold change /veh TMCC2 (11721928_a_at) / RFU IRGQ (11745062_a_at) / Fold change /veh IRGQ (11745062_a_at) / RFU FAM174B (11720279_a_at) / Fold change /veh FAM174B (11720279_a_at) / RFU TMPRSS4 (11748680_a_at) / Fold change /veh TMPRSS4 (11748680_a_at) / RFU FAM212B (11763350_a_at) / Fold change /veh FAM212B (11763350_a_at) / RFU PLEKHG5 (11743358_a_at) / Fold change /veh PLEKHG5 (11743358_a_at) / RFU ZSCAN30 (11745921_a_at) / Fold change /veh ZSCAN30 (11745921_a_at) / RFU CMKLR1 (11741424_a_at) / Fold change /veh CMKLR1 (11741424_a_at) / RFU LOC101060620 /// MAPK8IP1 (11723275_at) / Fold change /veh LOC101060620 /// MAPK8IP1 (11723275_at) / RFU SPTSSB (11747773_x_at) / Fold change /veh SPTSSB (11747773_x_at) / RFU PRSS12 (11739890_at) / Fold change /veh PRSS12 (11739890_at) / RFU BIN1 (11741810_x_at) / Fold change /veh BIN1 (11741810_x_at) / RFU WNT11 (11732464_a_at) / Fold change /veh WNT11 (11732464_a_at) / RFU C10orf10 (11716521_a_at) / Fold change /veh C10orf10 (11716521_a_at) / RFU C5orf56 (11738089_at) / Fold change /veh C5orf56 (11738089_at) / RFU CYB561 (11721691_x_at) / Fold change /veh CYB561 (11721691_x_at) / RFU ANKRD19P (11752326_a_at) / Fold change /veh ANKRD19P (11752326_a_at) / RFU OR2T12 /// OR2T33 /// OR2T8 (11738714_s_at) / Fold change /veh OR2T12 /// OR2T33 /// OR2T8 (11738714_s_at) / RFU VCAN (11748164_a_at) / Fold change /veh VCAN (11748164_a_at) / RFU JSRP1 (11732532_at) / Fold change /veh JSRP1 (11732532_at) / RFU KRTAP10-11 (11738290_x_at) / Fold change /veh KRTAP10-11 (11738290_x_at) / RFU MYO3A (11730013_a_at) / Fold change /veh MYO3A (11730013_a_at) / RFU EBF3 (11725865_a_at) / Fold change /veh EBF3 (11725865_a_at) / RFU CAMK2N1 (11719241_x_at) / Fold change /veh CAMK2N1 (11719241_x_at) / RFU C5orf56 (11738088_a_at) / Fold change /veh C5orf56 (11738088_a_at) / RFU OLFML3 (11715873_a_at) / Fold change /veh OLFML3 (11715873_a_at) / RFU LOC100653217 /// NTM (11731650_a_at) / Fold change /veh LOC100653217 /// NTM (11731650_a_at) / RFU MAPK11 (11762145_a_at) / Fold change /veh MAPK11 (11762145_a_at) / RFU FIZ1 (11724087_x_at) / Fold change /veh FIZ1 (11724087_x_at) / RFU OASL (11726364_x_at) / Fold change /veh OASL (11726364_x_at) / RFU SOX15 (11748057_x_at) / Fold change /veh SOX15 (11748057_x_at) / RFU CD79A (11719716_a_at) / Fold change /veh CD79A (11719716_a_at) / RFU HIST1H1D (11736915_at) / Fold change /veh HIST1H1D (11736915_at) / RFU CASKIN2 (11723855_a_at) / Fold change /veh CASKIN2 (11723855_a_at) / RFU LOC730098 (11760151_x_at) / Fold change /veh LOC730098 (11760151_x_at) / RFU OR4N2 (11742367_at) / Fold change /veh OR4N2 (11742367_at) / RFU PRRT2 (11749266_a_at) / Fold change /veh PRRT2 (11749266_a_at) / RFU SNX32 (11753110_a_at) / Fold change /veh SNX32 (11753110_a_at) / RFU CDHR5 (11726645_a_at) / Fold change /veh CDHR5 (11726645_a_at) / RFU RCAN1 (11760418_a_at) / Fold change /veh RCAN1 (11760418_a_at) / RFU FAM167A (11723789_a_at) / Fold change /veh FAM167A (11723789_a_at) / RFU FAM26E (11764081_at) / Fold change /veh FAM26E (11764081_at) / RFU ISYNA1 (11749810_s_at) / Fold change /veh ISYNA1 (11749810_s_at) / RFU ACY1 (11761880_at) / Fold change /veh ACY1 (11761880_at) / RFU 11764098_at / Fold change /veh 11764098_at / RFU SAMD14 (11745864_x_at) / Fold change /veh SAMD14 (11745864_x_at) / RFU NPB (11741838_a_at) / Fold change /veh NPB (11741838_a_at) / RFU TMPRSS6 (11731388_a_at) / Fold change /veh TMPRSS6 (11731388_a_at) / RFU KRTAP10-2 (11738614_at) / Fold change /veh KRTAP10-2 (11738614_at) / RFU ARHGAP8 /// PRR5-ARHGAP8 (11727945_x_at) / Fold change /veh ARHGAP8 /// PRR5-ARHGAP8 (11727945_x_at) / RFU KRTAP5-7 /// NADSYN1 (11734609_at) / Fold change /veh KRTAP5-7 /// NADSYN1 (11734609_at) / RFU RASL12 (11751679_a_at) / Fold change /veh RASL12 (11751679_a_at) / RFU CDKN2B (11736163_a_at) / Fold change /veh CDKN2B (11736163_a_at) / RFU PRF1 (11729649_at) / Fold change /veh PRF1 (11729649_at) / RFU, ZNF638 /// ZNF638-IT1 / Fold change vs veh, ZNF638 /// ZNF638-IT1 / RFU, PANK3 / Fold change vs veh, PANK3 / RFU, SH3YL1 / Fold change vs veh, SH3YL1 / RFU, ZEB2 / Fold change vs veh, ZEB2 / RFU, NRIP1 / Fold change vs veh, NRIP1 / RFU, PTTG1IP / Fold change vs veh, PTTG1IP / RFU, CAPN2 / Fold change vs veh, CAPN2 / RFU, MED14 / Fold change vs veh, MED14 / RFU, SNORA58 / Fold change vs veh, SNORA58 / RFU, C1orf63 / Fold change vs veh, C1orf63 / RFU, LRRFIP1 / Fold change vs veh, LRRFIP1 / RFU, NDUFAF7 / Fold change vs veh, NDUFAF7 / RFU, SLC12A2 / Fold change vs veh, SLC12A2 / RFU, IBTK / Fold change vs veh, IBTK / RFU, ESF1 / Fold change vs veh, ESF1 / Fold change vs veh, TMEM50B / RFU, TAOK1 / Fold change vs veh, TAOK1 / RFU, ACBD3 / Fold change vs veh, ACBD3 / RFU, TMA16 / Fold change vs veh, TMA16 / RFU, RWDD3 / Fold change vs veh, RWDD3 / RFU, BCAT1 / Fold change vs veh, BCAT1 / RFU, EDEM3 / Fold change vs veh, EDEM3 / RFU, TMEM33 / Fold change vs veh, TMEM33 / RFU, WDR75 / Fold change vs veh, WDR75 / RFU, AHCTF1 / Fold change vs veh, AHCTF1 / RFU, TFRC / Fold change vs veh, TFRC / RFU, ZDHHC17 / Fold change vs veh, ZDHHC17 / RFU, NOM1 / Fold change vs veh, NOM1 / RFU, ARL8B / Fold change vs veh, ARL8B / RFU, ZBTB11 / Fold change vs veh, ZBTB11 / RFU, TAMM41 / Fold change vs veh, TAMM41 / RFU, KIAA1704 /// LOC100996395 / Fold change vs veh, KIAA1704 /// LOC100996395 / RFU, ING1 / Fold change vs veh, ING1 / RFU, TRMT61B / Fold change vs veh, TRMT61B / RFU, FUBP3 / Fold change vs veh, FUBP3 / RFU, TP53 / Fold change vs veh, TP53 / RFU, TNKS2 / Fold change vs veh, TNKS2 / RFU, ZFP14 / Fold change vs veh, ZFP14 / RFU, ACTR2 / Fold change vs veh, ACTR2 / RFU, PPP3R1 / Fold change vs veh, PPP3R1 / RFU, PIK3R1 / Fold change vs veh, PIK3R1 / RFU, HNRNPA1 / Fold change vs veh, HNRNPA1 / RFU, RNF170 / Fold change vs veh, RNF170 / RFU, ZNF28 / Fold change vs veh, ZNF28 / RFU, RNGTT / Fold change vs veh, RNGTT / RFU, OGT / Fold change vs veh, OGT / RFU, BRD1 / Fold change vs veh, BRD1 / RFU, MARS / Fold change vs veh, MARS / RFU, ZNF655 / Fold change vs veh, ZNF655 / RFU, FAHD1 / Fold change vs veh, FAHD1 / RFU, BDP1 / Fold change vs veh, BDP1 / RFU, LRRCC1 / Fold change vs veh, LRRCC1 / RFU, ARID1A / Fold change vs veh, ARID1A / RFU, ZNF146 / Fold change vs veh, ZNF146 / RFU, ZNF330 / Fold change vs veh, ZNF330 / RFU, GPN3 / Fold change vs veh, GPN3 / RFU, C9orf123 / Fold change vs veh, C9orf123 / RFU, N4BP2L2 / Fold change vs veh, N4BP2L2 / RFU, ARFIP1 / Fold change vs veh, ARFIP1 / RFU, FAM179B / Fold change vs veh, FAM179B / RFU, BCL10 / Fold change vs veh, BCL10 / RFU, UHRF1BP1L / Fold change vs veh, UHRF1BP1L / RFU, BET1 / Fold change vs veh, BET1 / RFU, CNOT2 / Fold change vs veh, CNOT2 / RFU, ZNF268 / Fold change vs veh, ZNF268 / Fold change vs veh, ZNF507 / RFU, DGCR2 / Fold change vs veh, DGCR2 / RFU, WDSUB1 / Fold change vs veh, WDSUB1 / Fold change vs veh, HSP90B1 /// MIR3652 / RFU, ADSS / Fold change vs veh, ADSS / RFU, GK / Fold change vs veh, GK / RFU, ZNF148 / Fold change vs veh, ZNF148 / RFU, TAF9 / Fold change vs veh, TAF9 / RFU, SLC1A5 / Fold change vs veh, SLC1A5 / RFU, SLMO2 / Fold change vs veh, SLMO2 / RFU, ABCC4 / Fold change vs veh, ABCC4 / RFU, LOC101060439 /// RAP1B / Fold change vs veh, LOC101060439 /// RAP1B / RFU, RFX7 / Fold change vs veh, RFX7 / RFU, GTPBP10 / Fold change vs veh, GTPBP10 / RFU, CNEP1R1 / Fold change vs veh, CNEP1R1 / RFU, BIVM-ERCC5 /// ERCC5 / Fold change vs veh, BIVM-ERCC5 /// ERCC5 / RFU, ILF3 / Fold change vs veh, ILF3 / RFU 11762660_at / Fold change /veh 11762660_at / RFU VCAN (11757783_s_at) / Fold change /veh VCAN (11757783_s_at) / RFU DDX43 (11728927_at) / Fold change /veh DDX43 (11728927_at) / RFU KRT8 (11758188_x_at) / Fold change /veh KRT8 (11758188_x_at) / RFU NKD1 (11759106_at) / Fold change /veh NKD1 (11759106_at) / RFU SRD5A1 (11742802_a_at) / Fold change /veh SRD5A1 (11742802_a_at) / RFU TPSAB1 /// TPSB2 (11721975_s_at) / Fold change /veh TPSAB1 /// TPSB2 (11721975_s_at) / RFU GSTM3 (11746129_a_at) / Fold change /veh GSTM3 (11746129_a_at) / RFU IL23R (11737362_x_at) / Fold change /veh IL23R (11737362_x_at) / RFU TMEM51 (11727254_a_at) / Fold change /veh TMEM51 (11727254_a_at) / RFU PIWIL2 (11732686_x_at) / Fold change /veh PIWIL2 (11732686_x_at) / RFU ORM1 (11744905_x_at) / Fold change /veh ORM1 (11744905_x_at) / RFU CCDC152 (11743942_at) / Fold change /veh CCDC152 (11743942_at) / RFU ECM1 (11717891_a_at) / Fold change /veh ECM1 (11717891_a_at) / RFU IL23R (11748794_a_at) / Fold change /veh IL23R (11748794_a_at) / RFU TNFAIP8L3 (11732012_x_at) / Fold change /veh TNFAIP8L3 (11732012_x_at) / RFU MBOAT4 (11741988_at) / Fold change /veh MBOAT4 (11741988_at) / RFU 11764193_at / Fold change /veh 11764193_at / RFU TMEM53 (11763286_at) / Fold change /veh TMEM53 (11763286_at) / RFU MAGEB2 (11727129_at) / Fold change /veh MAGEB2 (11727129_at) / RFU TMEM200A (11744735_a_at) / Fold change /veh TMEM200A (11744735_a_at) / RFU CCDC152 (11751479_a_at) / Fold change /veh CCDC152 (11751479_a_at) / RFU FAM211A (11726209_a_at) / Fold change /veh FAM211A (11726209_a_at) / RFU RGS16 (11746705_a_at) / Fold change /veh RGS16 (11746705_a_at) / RFU VCAN (11755009_s_at) / Fold change /veh VCAN (11755009_s_at) / RFU RHOB (11743442_s_at) / Fold change /veh RHOB (11743442_s_at) / RFU RGS16 (11720943_a_at) / Fold change /veh RGS16 (11720943_a_at) / RFU RGS16 (11720944_at) / Fold change /veh RGS16 (11720944_at) / RFU, VPS4B / Fold change vs veh, VPS4B / RFU, CREB1 / Fold change vs veh, CREB1 / RFU, DNAJC13 / Fold change vs veh, DNAJC13 / RFU, GNAQ / Fold change vs veh, GNAQ / RFU, CDK5R1 / Fold change vs veh, CDK5R1 / RFU, ZRANB3 / Fold change vs veh, ZRANB3 / RFU, CUL4A / Fold change vs veh, CUL4A / RFU, CCNY / Fold change vs veh, CCNY / RFU, UFL1 / Fold change vs veh, UFL1 / RFU, COG3 / Fold change vs veh, COG3 / RFU, DIAPH2 / Fold change vs veh, DIAPH2 / RFU, SKA2 / Fold change vs veh, SKA2 / RFU, AFF3 / Fold change vs veh, AFF3 / RFU, LMF1 / Fold change vs veh, LMF1 / RFU, IPO11 / Fold change vs veh, IPO11 / RFU, DFFB / Fold change vs veh, DFFB / RFU, FOXP1 / Fold change vs veh, FOXP1 / RFU, CARD8 / Fold change vs veh, CARD8 / RFU, STRN3 / Fold change vs veh, STRN3 / RFU, ADK / Fold change vs veh, ADK / RFU, RASSF2 / Fold change vs veh, RASSF2 / RFU, WIPF1 / Fold change vs veh, WIPF1 / RFU, LARP1B / Fold change vs veh, LARP1B / RFU, RASA1 / Fold change vs veh, RASA1 / RFU, RB1 / Fold change vs veh, RB1 / RFU, PPFIA1 / Fold change vs veh, PPFIA1 / RFU, MAT2A / Fold change vs veh, MAT2A / RFU, CCT5 / Fold change vs veh, CCT5 / RFU, WDR92 / Fold change vs veh, WDR92 / RFU, CUX1 / Fold change vs veh, CUX1 / RFU, TTC7A / Fold change vs veh, TTC7A / RFU, TMEM135 / Fold change vs veh, TMEM135 / RFU, DEPTOR / Fold change vs veh, DEPTOR / RFU, CPM / Fold change vs veh, CPM / RFU, DNAJB6 / Fold change vs veh, DNAJB6 / RFU, CACNA2D3 / Fold change vs veh, CACNA2D3 / RFU, DTX4 / Fold change vs veh, DTX4 / RFU, TFCP2 / Fold change vs veh, TFCP2 / RFU, GMCL1 /// GMCL1P1 / Fold change vs veh, GMCL1 /// GMCL1P1 / RFU, AEBP2 / Fold change vs veh, AEBP2 / RFU, SNHG1 /// SNORD22 /// SNORD25 /// SNORD26 /// SNORD27 /// SNORD28 /// SNORD29 /// SNORD31 / Fold change vs veh, SNHG1 /// SNORD22 /// SNORD25 /// SNORD26 /// SNORD27 /// SNORD28 /// SNORD29 /// SNORD31 / Fold change (Aza/veh), C12orf56 (ProbeSet 11735607_a_at) / Fold change (ACY-1035/veh), C12orf56 (ProbeSet 11735607_a_at) / Fold change (Aza/veh), FGFR1OP (ProbeSet 11751329_s_at) / Fold change (ACY-1035/veh), FGFR1OP (ProbeSet 11751329_s_at) / Fold change (Aza/veh), VPS36 (ProbeSet 11739960_a_at) / Fold change (ACY-1035/veh), VPS36 (ProbeSet 11739960_a_at) / RFU SYPL1 (11715823_x_at) / Fold change /veh SYPL1 (11715823_x_at) / RFU IGFBP7 (11715501_s_at) / Fold change /veh IGFBP7 (11715501_s_at) / RFU REEP3 (11722064_at) / Fold change /veh REEP3 (11722064_at) / RFU IGLL1 (11728026_x_at) / Fold change /veh IGLL1 (11728026_x_at): dose or concentration left out as unconfirmed
Settings: ProbeSet 11753234_a_at; LIST B

With Nc1ncn([C@@H]2O[C@H](CO)[C@@H](O)[C@H]2O)c(=O)n1 [azacitidine] the “Fold change vs veh, TAMM41” value was 0.86.
